Measured values from ChEMBL document CHEMBL1139527, “Synthesis, modeling, and in vitro activity of (3'S)-epi-K-252a analogues. Elucidating the stereochemical requirements of the 3'-sugar alcohol on trkA tyrosine kinase activity” (J Med Chem, 2005).
pIC50: −log10 of the molar value.

Experiments:
[1] = Relative binding to PKC and TrkA
[2] = Inhibition of [gamma-32P]-ATP binding to protein kinase C (1.5 ng) done for 10 min in pH 7.4 at 37 degree C with compound dissolved in DMSO using in In-Plate assay
[3] = molecular target: T1, High affinity nerve growth factor receptor (Homo sapiens, UniProt P04629); experiment: Inhibition of baculovirus expressed human trkA
T1 sequence (P04629 whole entry): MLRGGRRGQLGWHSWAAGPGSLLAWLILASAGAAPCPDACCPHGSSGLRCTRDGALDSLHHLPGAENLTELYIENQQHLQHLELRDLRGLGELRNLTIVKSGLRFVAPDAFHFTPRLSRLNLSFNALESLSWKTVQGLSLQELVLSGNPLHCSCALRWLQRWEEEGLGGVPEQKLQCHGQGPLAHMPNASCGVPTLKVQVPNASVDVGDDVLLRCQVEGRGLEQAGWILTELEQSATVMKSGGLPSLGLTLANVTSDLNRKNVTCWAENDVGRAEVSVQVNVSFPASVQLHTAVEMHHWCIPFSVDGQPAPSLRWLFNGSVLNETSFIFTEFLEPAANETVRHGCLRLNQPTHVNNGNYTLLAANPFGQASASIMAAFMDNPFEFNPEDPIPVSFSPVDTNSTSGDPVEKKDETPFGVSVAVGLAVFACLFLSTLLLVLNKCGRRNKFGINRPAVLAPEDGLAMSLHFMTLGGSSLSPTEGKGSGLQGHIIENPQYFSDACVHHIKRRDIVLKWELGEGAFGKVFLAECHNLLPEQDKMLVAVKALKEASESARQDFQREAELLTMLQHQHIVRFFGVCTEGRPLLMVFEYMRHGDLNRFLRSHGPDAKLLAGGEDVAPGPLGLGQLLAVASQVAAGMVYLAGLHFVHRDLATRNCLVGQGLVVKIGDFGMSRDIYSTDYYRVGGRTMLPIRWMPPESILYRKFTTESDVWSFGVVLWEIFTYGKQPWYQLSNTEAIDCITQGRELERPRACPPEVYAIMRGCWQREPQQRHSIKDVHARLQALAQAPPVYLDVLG

[4] = molecular target: T1, High affinity nerve growth factor receptor; experiment: Inhibition of NGF-stimulated TrkA phosphorylation in NIH3T3 cells; format: cell-based

SMILES | Ratio [1] | pIC50 [2] | pIC50 [3] | pIC50 [4]
CO[C@]1(CO)C[C@H]2O[C@]1(C)n1c3ccccc3c3c4c(c5c6ccccc6n2c5c31)C(=O)NC4 | 39 | 6.94 | 8.54 | 
C[C@]12O[C@H](C[C@@]1(O)C(N)=O)n1c3ccccc3c3c4c(c5c6ccccc6n2c5c31)CNC4=O |  | 6.18 | 7.54 | 
COC(=O)[C@@]1(O)C[C@H]2O[C@]1(C)n1c3ccccc3c3c4c(c5c6ccccc6n2c5c31)C(=O)NC4 [K-252A] |  | 6.60 |  | 
COC(=O)[C@]1(O)C[C@H]2O[C@]1(C)n1c3ccccc3c3c4c(c5c6ccccc6n2c5c31)C(=O)NC4 |  | 6.94 |  | 

The next lines start with the values.

Ratio [1] | pIC50 [2] | pIC50 [3] | pIC50 [4] | SMILES
 | 7.10 | 8.40 |  | CC1(C)O[C@@H](n2c3ccccc3c3c4c(c5c6ccccc6[nH]c5c32)CNC4=O)C[C@@]1(O)CO
 | 6.51 | 7.70 |  | C[C@@]1(O)C[C@H]2O[C@]1(C)n1c3ccccc3c3c4c(c5c6ccccc6n2c5c31)C(=O)NC4
 | 6.07 | 8.52 | > 8.00 | C[C@]1(O)C[C@H]2O[C@]1(C)n1c3ccccc3c3c4c(c5c6ccccc6n2c5c31)C(=O)NC4
 | 6.66 | 8.40 |  | CC1(C)O[C@@H](n2c3ccccc3c3c4c(c5c6ccccc6[nH]c5c32)CNC4=O)C[C@]1(O)CO
